Measurements reported in publication PMC9045377, “CpxA Phosphatase Inhibitor Activates CpxRA and Is a Potential Treatment for Uropathogenic Escherichia coli in a Murine Model of Infection” (Microbiology Spectrum, 2022).
Several values for one entry are separate records, joined by “and”; a condition that tells them apart may be missing. Identical values can stand only once. Like-named read-outs stand apart in the source and are kept apart here.

Assay: Pharmacokinetics of compound 6 in mice: plasma, urine, bladder, kidneys by HPLC-MS/MS
Assay type: in vivo, female CBA/J mice
Settings: for concentration at 52 h / concentration at 48 h: subcutaneous; for concentration at 52 h: 100 mg/kg s.c. once a day at 0, 24, 48 h; for concentration at 48 h: 100 mg/kg s.c. once a day, sample just prior to the 48-h injection
Method: We developed a high-performance liquid chromatography-tandem mass spectrometry (HPLC-MS/MS) assay to measure compound 6 with a lower limit of quantification of 1 ng/mL. Single-dose PK parameters of compound 6 were determined in female CBA/J mice (n = 15) given 100 mg/kg s.c. dissolved in the vehicle. Blood was obtained from groups of 3 mice 1, 2, 4, 8, and 24 h postinjection.
As effective antimicrobials must achieve concentrations that exceed their MICs, we next determined whether compound 6 achieved plasma, kidney, bladder, and urinary concentrations in excess of its peak activating concentration of 10 μM in the CpxR reporter assay. […] Blood and urine samples were obtained just prior to the 48-h injection and at 52 h, 4 h after the final dose; we were only able to recover 2 urine samples at those time points. At 52 h, the animals were sacrificed, and tissue levels of compound 6 were determined in the bladder and kidneys. The mean peak and trough levels of compound 6 were 18.6 ± 3.2 μM and 9.6 ± 1.9 μM in the plasma and 344 μM and 151.7 μM in the urine, respectively. The mean tissue levels of compound 6 in the bladder and kidneys were 203 ± 28 μM and 48 ± 4 μM, respectively. Thus, compound 6 achieved levels in the urine, bladder, and kidneys that were ∼5- to 34-fold higher than its peak activating concentration.
Compound 6 was quantified by the IU Simon Comprehensive Cancer Center Clinical Pharmacology Analytical Core from mouse plasma and mouse urine using temazepam (TMP) as the internal standard and HPLC-MS/MS (5500 QTRAP; AB Sciex, Framingham, MA). In brief, compound 6 and TMP were separated by a gradient mobile phase (acetonitrile, 5 mM ammonium acetate) with a Restek Ultra C8 50 by 4.6 mm 5-micron column. The mass spectrometer utilized an electrospray ionization probe run in positive mode. The multiple reaction monitoring (MRM) Q1/Q3 (m/z) transitions for compound 6 and TMP were 187.9/146.0 and 301.1/254.9, respectively. Plasma or urine samples (20 μL) were transferred to glass culture tubes, TMP (20 μL of 0.1 ng/μL) was added as the internal standard, and the extraction was performed by the addition of 2 mL of methyl tertiary butyl ether. The samples were then vortexed, centrifuged, and the organic layer was transferred to a clean glass culture tube and evaporated to dryness. The samples were then reconstituted with 50 μL of the gradient mobile phase, and a 10-μL aliquot was injected to the HPLC-MS/MS. The standard curves were prepared using naive mouse plasma or naive mouse urine as the matched matrix and was linear from 1 to 1,000 ng/mL.
Compound 6 was quantified from the bladder and kidneys using a slightly modified method from the plasma sample analysis. Briefly, the tissue was weighed and then transferred to a polypropylene tube. Phosphate-buffered saline (PBS) (pH 7.4) was added to the tissue to bring the total volume to 0.5 mL (assumption 1 g = 1 mL). The tissue was homogenized using a TissueRuptor with a single use disposable probe. An aliquot (0.4 mL) was transferred to a clean polypropylene tube and temazepam (20 μL of 0.1 ng/μL) was added as the internal standard. The extraction procedure and HPLC-MS/MS conditions were the same as for the plasma samples. The standard curve was prepared using phosphate-buffered saline and was linear from 0.04 to 40 ng/sample.

NC1CCCc2c1[nH]c1ccc(F)cc21 (stereo not drawn) [compound 6]
concentration at 52 h (female, CBA/J, mouse, bladder, at 52 h, read-out: mean tissue level in bladder): 203 ± 28 µM | concentration at 52 h (female, CBA/J, mouse, kidneys, at 52 h, read-out: mean tissue level in kidneys): 48 ± 4 µM | concentration at 24 h (female, CBA/J, mouse, plasma, sc, single dose 100 mg/kg s.c., read-out: plasma concentration at 24 h, mean ± SD): 2390 ng/mL and 11.7 µM | Tmax (female, CBA/J, mouse, plasma, sc, single dose 100 mg/kg s.c., read-out: time of peak plasma concentration): 4 h | concentration at 52 h (female, CBA/J, mouse, plasma, sample at 52 h, read-out: mean peak level in plasma): 18.6 ± 3.2 µM | concentration at 48 h (female, CBA/J, mouse, plasma, read-out: mean trough level in plasma): 9.6 ± 1.9 µM | concentration at 52 h (female, CBA/J, mouse, urine, sample at 52 h, 2 samples, read-out: mean peak level in urine): 344 µM | concentration at 48 h (female, CBA/J, mouse, urine, 2 samples, read-out: mean trough level in urine): 152 µM | peak plasma concentration, mean ± SD (single dose 100 mg/kg s.c., at 4 h, 100 mg/kg): 3,305 ± 696 ng/mL and 16.2 ± 3.4 μM
